{"source": "patent US12410185B2", "about": "“Compounds targeting mutant calreticulin” (MYELOPRO DIAGNOSTICS AND RESEARCH GmbH, priority 2018, dated 2025)", "target": "T1, mutant calreticulin (Homo sapiens, UniProt P27797)", "T1 construct": "CD34-positive cells isolated from a healthy control and a CALR ins5 mutant patient; endogenous in cells; host or cells: primary CD34-positive cells from a CALR ins5 mutant patient", "T1 sequence (P27797 with tags, fused parts or gaps, stated change not applied)": "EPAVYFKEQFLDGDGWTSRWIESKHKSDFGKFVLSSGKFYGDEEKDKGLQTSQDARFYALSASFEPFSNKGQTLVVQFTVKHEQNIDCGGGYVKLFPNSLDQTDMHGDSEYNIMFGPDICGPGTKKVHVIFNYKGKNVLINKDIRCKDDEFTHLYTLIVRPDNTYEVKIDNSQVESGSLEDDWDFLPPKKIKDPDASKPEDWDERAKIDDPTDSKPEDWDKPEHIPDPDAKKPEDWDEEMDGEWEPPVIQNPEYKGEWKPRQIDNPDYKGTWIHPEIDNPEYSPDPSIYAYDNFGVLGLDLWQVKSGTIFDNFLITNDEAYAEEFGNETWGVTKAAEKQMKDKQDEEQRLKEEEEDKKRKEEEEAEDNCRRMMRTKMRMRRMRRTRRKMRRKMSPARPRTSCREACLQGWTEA", "test": "Western blot analysis of CD34-positive cells from a CALR ins5 mutant patient", "type": "cell-based", "set-up": "dose or concentration left out as unconfirmed", "conditions": "hematoxylin, 8 hours", "method": "2 million Ba/F3-MPL CALR WT or mutant cells were treated with hematoxylin or the equivalent volume of DMSO in a total volume of 15 ml of RPMI media in T75 flasks (Thermal Fisher Scientific). Cells were collected and washed with PBS before being lysed in whole cell lysis buffer containing 20 mM HEPES, 20% glycerol, 50 mM KCl, 400 mM NaCl, 1 mM EDTA, 1 mM DTT, 5 mM Na orthovanadate, 0.5% NP40, 0.1% Tween 20, supplemented with cOmplete™, Mini, EDTA-free Protease Inhibitor Cocktail (Sigma) and PhosSTOP™ (Sigma). Samples were rotated at 4° C. for 20 min prior to centrifugation at […] for 20 min. The soluble fraction of the sample was collected. Protein concentration was quantified by the Bio-Rad Protein Assay (Bio-Rad) according to the manufacturer's instructions and measured by a SpectraMax Microplate Reader (Molecular Devices). Equal amounts of protein were loaded for 8% or 10% SDS-polyacrylamide gel electrophoresis prior to transfer to Amersham™ Protran® nitrocellulose membranes at 35V, 4° C. overnight. Membranes were then blocked by 5% bovine serum albumin fraction V (Sigma) or milk. Mutant calreticulin was detected by a polyclonal rabbit antibody against the mutant specific C-terminal peptide (Myelopro). […]"}
{"smiles": "Oc1cc2c(cc1O)[C@@H]1c3ccc(O)c(O)c3OC[C@]1(O)C2", "note": "[hematoxylin, Hematoxylin]", "values": [{"measurement": "protein abundance of mutant calreticulin", "result": "drastically reduced"}]}
